Our source for the Ki and inhibition values is ChEMBL document CHEMBL3608265, “Synthesis and inhibitory activity of substrate-analog fructosyl peptide oxidase inhibitors” (Bioorg Med Chem Lett, 2015).

The Ki is a measure of affinity in units of concentration, obtained from inhibition or displacement. A higher Ki goes with weaker binding.

Active and inactive are the calls of the source. No cut-off for these calls is given here.

A short description of test [1]: Inhibition of Coniochaeta sp. FPOX-C CFP-T7 mutant using Fru-ValHis as substrate by Dixon plot analysis.
Test [2] relates to Coniochaeta. Kind of test: Competitive inhibition of Coniochaeta sp. FPOX-C CFP-T7 mutant using Fru-ValHis as substrate at 250 to 1250 uM by Lineweaver-Burk plot analysis.
Test [3] concerns Coniochaeta. Kind of test: Competitive inhibition of Coniochaeta sp. FPOX-C CFP-T7 mutant using Fru-ValHis as substrate at 20 to 100 uM by Lineweaver-Burk plot analysis.
Test [4] concerns Coniochaeta. Kind of test: Competitive inhibition of Coniochaeta sp. FPOX-C CFP-T7 mutant using Fru-ValHis as substrate at 5 to 25 uM by Lineweaver-Burk plot analysis.

Regarding `N[C@@H](CCCCSC[C@@]1(O)OC[C@@H](O)[C@@H](O)[C@@H]1O)C(=O)O`, the Ki in test [1] was found to be 782 µM. The inhibition result with Coniochaeta [2] was “Active”.
For the compound `CC(C)[C@H](SC[C@@]1(O)OC[C@@H](O)[C@@H](O)[C@@H]1O)C(=O)N[C@@H](Cc1c[nH]cn1)C(=O)O`, the Ki in test [1] is 66.8 µM. For the same compound, the inhibition entry with Coniochaeta [3] is “Active”.
With `CC(C)[C@H](SC[C@@]1(O)OC[C@@H](O)[C@@H](O)[C@@H]1O)C(=O)O`, the inhibition entry in the test on Coniochaeta [4] is “Active”. The compound also had an inhibition constant (Ki) in test [1] of 11.1 µM.
